Experimental findings from patent EP4755886A1 (Chengdu Chipscreen Pharmaceutical Ltd., priority 2023, dated 2025) are described below.

Like-named read-outs stand apart in the source and are kept apart here. Where only a bound is given, the exact number is not on record here.

For assay [1], the system named is wild-type HCT-116 cells. Nature of the assay: Cell proliferation (MTS), wild-type HCT-116. The following applies: Homo sapiens, 240 h; wild-type HCT-116, 10 days with compound, MTS reading; read-out: IC50 HCT116 WT. It counts as cell-based. An outline of the steps:
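Wild-type HCT-116 cells were seeded at 100 cells/well in McCoy's 5A/10% FBS. From day 1 they were treated with compound in 3-fold dilutions (initial 20 µM, 8 points) for 10 days at 37° C. Proliferation was read by MTS on day 11, and IC50 was obtained from a four-parameter logistic fit.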

Assay [2] has as its system MTAP^-/- HCT-116 cells. In words: Cell proliferation (MTS), MTAP-/- HCT-116. To be noted: for IC50: Homo sapiens, 240 h, MTAP-/- HCT-116, 10 days with compound, MTS reading, read-out: IC50 HCT116 MTAP-/-; for Selectivity: HCT116 WT IC50 relative to HCT116 MTAP-/- IC50. It counts as cell-based, human. An outline of the steps:
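MTAP-/- (CRISPR/Cas9 biallelic knockout) or wild-type HCT-116 cells seeded at 100 cells/well, treated next day with 8-point 3-fold dilutions (top 20 µM) for 10 days at 37 °C, 5% CO2. Viability read by MTS; IC50 from four-parameter logistic fit of inhibition rate vs log concentration.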

Assay [3] concerns the target T1, CYP450 enzyme 3A4 (Homo sapiens, UniProt P08684).
T1 construct: Liver microsomes (purchased from BIOIVT, Cat. No.: X008070); tissue BIOIVT X008070; host or cells: human liver microsomes
In words: CYP inhibition test in human liver microsomes. To be noted: human liver microsomes 0.1 mg/mL. It counts as in vitro ADME. As for the experimental part:
Experimental materials: human liver microsomes (purchased from BIOIVT);
PBS: 0.1 M KH2PO4 and K2HPO4 buffers, pH 7.4.
MgCl2: a certain amount of MgCl2 was weighed out and prepared into a 20 mM MgCl2 solution with PBS.
NADPH (Chinese name: reduced nicotinamide adenine dinucleotide phosphate, purchased from Sigma, Cat. No.: 481973-500 mg): a certain amount of NADPH was weighed out and a 5 mM solution of NADPH was prepared with a 20 mM MgCl2 solution, and the final incubation concentration was 1 mM.
Compounds: 3 mM, 1 mM, 0.3 mM, 0.1 mM, 0.03 mM, 0.01 mM, and 0 mM solutions of the test compounds were prepared with a DMSO-methanol (v:v = 1:9) solution, and the final incubation concentrations were 30 µM, 10 µM, 3 µM, 1 µM, 0.3 µM, 0.1 µM, and 0 µM. 30 µM, 10 µM, 3 µM, 1 µM, 0.3 µM, and 0 µM solutions of the positive compound (ketoconazole) were prepared with a DMSO-methanol (v:v = 1:9) solution, and the final incubation concentrations were 0.3 µM, 0.1 µM, 0.03 µM, 0.01 µM, 0.003 µM, and 0 µM.
Substrate working solutions: 200 µM and 15 µM solutions of substrate working solutions (testosterone and midazolam) were prepared with PBS, separately, and the final incubation concentrations were 40 µM and 3 µM.
Liver microsomes (purchased from BIOIVT, Cat. No.: X008070): the liver microsomes were diluted to […] with PBS, and the final incubation concentration was 0.1 mg/mL.
The prepared test compounds or positive compounds were added to a 96-well plate, and then the prepared human liver microsome working solution and substrate working solution were added. The mixture was mixed well. The mixture was pre-incubated in a thermostat incubator at 37 °C for 5 min, and then the prepared NADPH was added to start the reaction. The mixture was incubated for 5 min or 10 min. After the incubation was completed, a pre-cooled acetonitrile solution containing an internal standard was added to terminate the reaction. After protein precipitation, the mixture was vortexed for 5 min with shaking and then centrifuged at 4000 rpm for 10 min. The supernatant was collected and added to the 96-well plate. The content (peak concentration ratio) of the metabolites of the substrate was determined by an LC-MS/MS method. The residual activity and the half maximal inhibitory concentration (IC50) of the enzyme were calculated based on the detected content.
Percentage of remaining enzyme activity: The activity of each subtype of CYP450 enzyme was expressed as the amount of metabolite produced, and the percentage of remaining enzyme activity was calculated as follows: [formula]
The concentrations of the test substances and the corresponding residual activity percentages were fitted using a nonlinear model of Excel software, and the concentration of the test substances at which 50% inhibition of metabolite production was achieved was the IC50 value.
A general note: Liver microsomes are vesicles of endoplasmic reticulum, rich in cytochrome P450 enzymes.

The mark [4] stands for this setting: substrate midazolam 3 µM, read-out: IC50 3A4-Midazolam.
The mark [5] stands for this setting: substrate testosterone 40 µM, read-out: IC50 3A4-Testosterone.

T1 sequence (P08684 whole entry): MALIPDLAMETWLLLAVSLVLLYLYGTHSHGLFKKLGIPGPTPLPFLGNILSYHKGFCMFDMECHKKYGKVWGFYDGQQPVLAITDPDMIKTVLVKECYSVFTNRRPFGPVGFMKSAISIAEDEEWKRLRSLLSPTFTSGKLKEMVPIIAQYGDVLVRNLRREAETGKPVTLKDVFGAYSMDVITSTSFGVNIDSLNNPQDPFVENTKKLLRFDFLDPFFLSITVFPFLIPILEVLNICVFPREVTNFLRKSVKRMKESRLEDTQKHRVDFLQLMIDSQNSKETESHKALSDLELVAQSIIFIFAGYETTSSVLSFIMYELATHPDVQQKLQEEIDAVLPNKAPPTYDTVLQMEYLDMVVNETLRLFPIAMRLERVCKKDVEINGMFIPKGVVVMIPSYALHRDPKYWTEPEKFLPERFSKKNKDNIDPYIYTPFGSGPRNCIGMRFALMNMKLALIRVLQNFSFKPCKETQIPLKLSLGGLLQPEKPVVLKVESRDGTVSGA

As to `CN(C(=O)c1cc2c(cc1F)nc(N)c1cnn(C)c12)[C@@H]1COc2cc(C#Cc3cnn(C)c3)ccc21` [Compound 5A, (S)-4-amino-7-fluoro-N,1-dimethyl-N-(6-((1-methyl-1H-pyrazol-4-yl)ethynyl)-2,3-dihydrobenzofuran-3-yl)-1H-pyrazolo[4,3-c]quinoline-8-carboxamide], the IC50 was 170 nM in assay [1], 1.7 nM in assay [2], > 30000 nM in assay [3] (setting [4]) and > 30000 nM in assay [3] (setting [5]).

`CN(C(=O)c1cc2c3c(c(N)nc2cc1Cl)COC3)[C@@H]1COc2cc(C#Cc3cnn(C4CC4)c3)ccc21` [Compound 43A, (S)-4-amino-7-chloro-N-(6-((1-cyclopropyl-1H-pyrazol-4-yl)ethynyl)-2,3-dihydrobenzofuran-3-yl)-N-methyl-1,3-dihydrofuro[3,4-c]quinoline-8-carboxamide]: the IC50 was 646 nM in assay [1], 3.8 nM in assay [2], > 30000 nM in assay [3] (setting [4]) and > 30000 nM in assay [3] (setting [5]). Further, the Selectivity in assay [2] was found to be 170.

Take `Cc1nn(C)cc1C#Cc1ccc2c(c1)OC[C@H]2N(C)C(=O)c1cc2c3c(c(N)nc2cc1Cl)COC3` [Compound 50A, (S)-4-amino-7-chloro-N-(6-((1,3-dimethyl-1H-pyrazol-4-yl)ethynyl)-2,3-dihydrobenzofuran-3-yl)-N-methyl-1,3-dihydrofuro[3,4-c]quinoline-8-carboxamide]: the IC50 was 431 nM in assay [1], 2.4 nM in assay [2], > 30000 nM in assay [3] (setting [4]) and > 30000 nM in assay [3] (setting [5]). In addition, the Selectivity in assay [2] worked out at 180.
